From US6933315B2, “Derivatives of isoindigo, indigo and indirubin and methods of treating cancer” (priority 2001, dated 2005)
Where two headings read alike, the source gives them in different places.

What was measured:
[1] = parameters: species or system dogs; settings: dog, in vivo
Protocol: Two dogs were initially tested for sub-acute toxicity of Meisoindigo. They were orally given 10 mg/kg daily for 3 months.
Since no major toxicities were found during the initial study, an additional 3 dogs were tested by orally giving them a higher dose (20 mg/kg). Among them, one dog was given 20 mg/kg for 46 days, and another 2 dogs given for 2 months. […] However, all of those symptoms disappeared after the termination of the treatment of Meisoindigo.

[2] = tested on: TA97, TA98, TA100 and TA102; assay: Reverse mutation, Ames test; assay type: cell-based, salmonella typhimurium; settings: +S9 and −S9, Meisoindigo 2, 20, 50, 100 and 200 μg/dish
Protocol: Meisoindigo at concentrations of 2, 20, 50, 100 and 200 μg/dish (10 cm), metabolically activated (+S9) and inactivated (−S9), were tested in strains of TA97, TA98, TA100 and TA102 (amino acid deficit salmonella typhimurium) respectively. Daunomycin, 2-aminofluorene (2AF), methylmethanesulfonate (MMS), 2,7-2AF, and 2-hydroxy-anthraquinone were used as positive controls.

[3] = tested on: cdk2; assay: cdk2 activity immuno-precipitated from treated LNCaP cells; assay type: cell-based, Human; settings: 24 hours incubation with LNCaP cells
Protocol: (§1) Assay for cyclin dependent kinase activity: HUVEC and LNCaP cells were cultured in EMB (endothelial cell basal medium) and RPMI 1640 containing 10% FBS, respectively. The cells grown exponentially were exposed to indicated concentrations of meisoindigo or NATURA for 24 hr. The cells were harvested, washed, and total proteins extracted as described previously. One hundred μg of the proteins were immuno-precipitated using antibodies against cdk2, cdk4/6, PKC, ERK2 or cyclin D1 overnight at 4° C. in the presence of a cocktail of protease inhibitors. The immuno-precipitates were washed 4 times with protein extraction buffer and once with kinase assay buffer, and reacted with 75 μg/ml histone H1 in the presence of [γ-^32P]-ATP (2.5 μCi/10 μM). The phosphorylated histone H1 (represent cdk activity) was measured by scintillation counting or by SDS-polyacrylaimde gel electrophoresis. The direct inhibitory effects of Meisoindigo and NATURA were also measured by reaction of immuno-purified specific enzyme from untreated cells directly with the Meisoindigo or NATURA.
LNCaP cells grown exponentially were exposed to different concentrations of NATURA for 24 hrs. […] The upper panels (A & B) are imagines of the films from SDS-PAGE, and lower panels represent the density measured by an Imagine Densitometer from the same films (expressed as percent of control).

[4] = biological target: T1, immuno-purified cdk2 from LNCaP cells (Homo sapiens, UniProt P24941); assay: Direct inhibition of immuno-purified cdk2 activity in vitro; assay type: biochemical
T1 construct: Two hundred mg of total protein extracts were immuno-precipitated with cdk2 antibody overnight at 4° C
Protocol: as §1
When immuno-purified cdk2 from LNCaP cells was reacted with histone H1 in the presence of different concentrations of NATURA-β and γ-[^32P]-ATP (2.5 μCi/[…]), the enzyme activity was decreased in a concentration-dependent manner.
Two hundred mg of total protein extracts were immuno-precipitated with cdk2 antibody overnight at 4° C. After 4 washes with PBSTDS, and once with kinase assay buffer, the immuno-purified enzyme was then reacted for 10 min with 10 mg of histone H1 in the presence of different concentrations of NATURA or 50 mM of genistein (as a positive control) and γ-[^32P]-ATP (2.5 mCi/10 mM). The phosphorylated histone H1 (reflecting cdk2 activity) was detected either by SDS-PAGE (upper panel), or radioactive scintillation counting (lower panel, after eliminating free γ-[^32P]-ATP).

[5] = tested on: protein kinase C (PKC); assay: PKC activity from treated LNCaP cells; assay type: cell-based, Human; settings: as high as 15 μM, 24 hrs
Protocol: as §1, with “The immuno-precipitates were washed 4 times with protein extraction buffer and once with kinase assay buffer, and reacted with 75 μg/ml histone H1 in the presence of [γ-^32P]-ATP (2.5 μCi/10 μM).” left out, “NATURA. […]” for “NATURA.”
(§2) LNCaP cells at exponential growth phase were exposed to different concentrations of NATURA (panel A & B) for 24 hrs, or to PD98059 (panel C) for 15 min. […] Upper panels are the imagines of x-ray films from SDS-PAGE, and lower panels represent the densities of each band from the films determined by an Imagine Densitometer from the same films (expressed as the percent of control).

[6] = tested on: extracellular signal-regulated protein kinase 2 (ERK2); assay: ERK2 activity from treated LNCaP cells; assay type: cell-based, Human; settings: as high as 15 μM, 24 hrs
Protocol: as §1, with “The immuno-precipitates were washed 4 times with protein extraction buffer and once with kinase assay buffer, and reacted with 75 μg/ml histone H1 in the presence of [γ-^32P]-ATP (2.5 μCi/10 μM).” left out, “NATURA. […]” for “NATURA.”
as §2

[7] = Solubility description; assay type: physicochemical

Structure (SMILES) | histochemical examinations [1] | biochemical changes of blood, liver, and kidney ([1]; po, 10 mg/kg) | clinical observations ([1]; po, 10 mg/kg) | clinical observations ([1]; po, 20 mg/kg) | tested parameters ([1]; po, 20 mg/kg) | reverse mutations (Ames test) [2] | inhibition of cdk2 enzyme activity ([3]; 5.0 μM) | inhibition of cdk2 enzyme activity ([3]; 15 μM) | inhibition at 10 µM ([4]; 10 μM compound, ATP concentration as high as 100 μM, read-out: inhibitory effect on immuno-purified cdk2, ATP competing assay) | IC50 ([4]; immuno-purified cdk2, histone H1, γ-[32P]-ATP 2.5 μCi/20 μM) | effect on PKC activity [5] | effect on ERK2 activity [6] | solubility in dimethyl sulfoxide (DMSO) [7] | solubility in ethanol, acetone, chloroform [7] | solubility in water [7]
CN1C(=O)/C(=C2/C(=O)Nc3ccccc32)c2ccccc21 [Meisoindigo] | cellular edema, fatty degeneration, and scatter hyperplasia inflammation in liver tissues | No biochemical changes | Minor gastro intestinal irritations were observed occasionally | intestinal irritations at various degrees | No abnormalities | No induction of reverse mutations |  |  |  |  |  |  |  |  | 
CC(=O)OC1COC(N2C(=O)/C(=C3/C(=O)Nc4ccccc43)c3ccccc32)C(OC(C)=O)C1OC(C)=O [NATURA, 1-(β-D-O-Triacetyl-xylopyranosyl)-isoindigo] |  |  |  |  |  |  | approximately 46% | ~92% | > 50% | 1600 ± 200 nM | No inhibitory effect | No inhibitory effect | soluble | slightly dissolves | rarely dissolves
